# Measurements published in patent publication US9155714B2, “Compositions comprising an aromatic alcohol and a TRPV-1 antagonist, and uses thereof” (JOHNSON & JOHNSON CONSUMER INC., priority 2013, dated 2015).
# Where “and” joins values, the source holds several entries; their conditions need not be identical. Identical values can stand only once.
# What was measured:
# Assay type in all cases: cell-based
# [1] = molecular target: T1, human vanilloid receptor-1 (TRPV-1) (Homo sapiens, UniProt Q8NER1); assay: Calcium Flux Test, inhibition of phenoxyethanol-induced calcium flux
# T1 construct: host or cells: HEK293
# T1 sequence (Q8NER1 whole entry): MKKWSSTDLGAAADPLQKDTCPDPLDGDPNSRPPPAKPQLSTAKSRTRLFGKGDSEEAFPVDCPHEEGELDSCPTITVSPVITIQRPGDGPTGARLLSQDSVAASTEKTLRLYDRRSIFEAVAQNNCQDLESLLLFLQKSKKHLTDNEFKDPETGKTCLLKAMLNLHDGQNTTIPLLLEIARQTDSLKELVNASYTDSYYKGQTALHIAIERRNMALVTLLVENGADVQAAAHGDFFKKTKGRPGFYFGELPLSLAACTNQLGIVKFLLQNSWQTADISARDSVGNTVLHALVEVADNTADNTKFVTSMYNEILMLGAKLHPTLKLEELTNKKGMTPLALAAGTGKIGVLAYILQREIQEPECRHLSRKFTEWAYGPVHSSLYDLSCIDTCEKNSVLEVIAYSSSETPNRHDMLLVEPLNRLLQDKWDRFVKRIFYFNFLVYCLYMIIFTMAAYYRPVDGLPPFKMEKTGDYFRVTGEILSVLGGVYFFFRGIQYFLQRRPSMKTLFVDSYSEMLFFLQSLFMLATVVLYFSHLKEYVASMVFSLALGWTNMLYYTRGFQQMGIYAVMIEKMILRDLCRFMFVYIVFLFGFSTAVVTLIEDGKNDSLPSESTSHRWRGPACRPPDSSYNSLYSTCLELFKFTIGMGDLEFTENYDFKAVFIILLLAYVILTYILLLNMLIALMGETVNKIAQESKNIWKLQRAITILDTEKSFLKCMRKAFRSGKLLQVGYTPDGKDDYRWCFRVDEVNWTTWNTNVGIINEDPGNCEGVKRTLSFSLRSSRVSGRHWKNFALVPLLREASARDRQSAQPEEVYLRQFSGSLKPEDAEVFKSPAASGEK
# Experimental: (§1) The Calcium Flux Test is performed in the following manner: Recombinant HEK293 cells expressing human vanilloid receptor-1 (TRPV-1; accession number AF196175, EMD Millipore, Billerica, Mass.) are grown in D-MEM/F-12 media (Life Technologies, Grand Island, N.Y.) supplemented with 10% fetal bovine serum, 1% non essential amino acids and 400 μg/mL Geneticin (Gibco, Life Technologies). Cells are plated at a concentration of 15,000 cells per well on poly-D-lysine-coated 384 well plates and incubated overnight at 5% CO2 and 37° C. After incubation, culture media is removed from the wells and replaced with 50 μL per well of Fluo-8 No Wash dye solution (#36315, AAT Bioquest, Sunnyvale, Calif.). The Fluo-8 dye solution is prepared by mixing 20 uL of Fluo-8 NW with 30 mL of 0.33× Pluronic® F127 Plus (BASF of Ludwigshafen, Germany) in assay buffer (1×HBSS+2% of HEPES). Fluo-8 dye is incubated for 30 minutes at room temperature. Intracellular calcium (Ca^2+) flux is monitored upon exposure to aromatic alcohol in DMSO vehicle by measuring fluorescence intensity at Ex/Em 490/525 on a Functional Drug Screening System (FDSS; Hamamatsu, […]). Measurements are taken every second for a period of 4 minutes. […] Statistical differences are obtained using One Way ANOVA with Tukey Post-hoc test; statistical significance is defined as P≦0.05.
# (§2) The Maximum RFU obtained with a given concentration of aromatic alcohol is compared with the Maximum RFU obtained using the same concentration of aromatic alcohol but pretreated with the TRPV-1 antagonist for 5 minutes after dye incubation. Percent inhibition achieved with the TRPV-1 antagonist is calculated as: 100*((Maximum RFU of aromatic alcohol−Maximum RFU of aromatic alcohol pretreated with TRPV-1 antagonist)/Maximum RFU of aromatic alcohol).
# (§3) Capsazepine and AMG9810 were tested for activity as TRPV-1 antagonists using the Calcium Flux Test using two different concentrations of phenoxyethanol in DMSO. They were also tested using the Calcium Flux Test in which phenoxyethanol was replaced with capsaicin. […]
# [2] = molecular target: T1, human vanilloid receptor-1 (TRPV-1); assay: Calcium Flux Test, phenoxyethanol replaced with capsaicin (capsaicin-induced calcium flux)
# Experimental: as §1, §2, §3
# [3] = molecular target: T1, human vanilloid receptor-1 (TRPV-1); assay: Calcium Flux Test, inhibition of benzyl alcohol-induced calcium flux; details: 10 uM capsazepine
# Experimental: as §1, §2
# Capsazepine was tested for activity as a TRPV-1 antagonist with different concentrations of benzyl alcohol in DMSO as described in Example 2. […]
# [4] = molecular target: T1, human vanilloid receptor-1 (TRPV-1); assay: Calcium Flux Test, inhibition of phenethyl alcohol-induced calcium flux; details: 10 uM capsazepine; for inhibition at 10 µM: read-out: (column without head; percent inhibition)
# Experimental: as §1, §2
# Capsazepine was tested for activity as a TRPV-1 antagonist with different concentrations of phenethyl alcohol in DMSO as described in Example 2. […]
# [5] = capsazepine 0.6104 nM, phenoxyethanol 2 mM
# [6] = capsazepine 0.6104 nM, phenoxyethanol 3 mM
# [7] = capsazepine 2 nM, phenoxyethanol 2 mM
# [8] = capsazepine 10 nM, phenoxyethanol 2 mM
# [9] = capsazepine 10 nM, phenoxyethanol 3 mM
# [10] = capsazepine 39 nM, phenoxyethanol 2 mM
# [11] = capsazepine 39 nM, phenoxyethanol 3 mM
# [12] = capsazepine 156 nM, phenoxyethanol 2 mM
# [13] = capsazepine 156 nM, phenoxyethanol 3 mM
# [14] = capsazepine 625 nM, phenoxyethanol 2 mM
# [15] = capsazepine 625 nM, phenoxyethanol 3 mM
# [16] = capsazepine 2500 nM, phenoxyethanol 2 mM
# [17] = capsazepine 2500 nM, phenoxyethanol 3 mM
# [18] = capsazepine 10000 nM, phenoxyethanol 2 mM
# [19] = capsazepine 10000 nM, phenoxyethanol 3 mM
# [20] = capsazepine 2 nM, capsaicin 300 nM
# [21] = capsazepine 10 nM, capsaicin 100 nM
# [22] = capsazepine 10 nM, capsaicin 300 nM
# [23] = capsazepine 39 nM, capsaicin 100 nM
# [24] = capsazepine 39 nM, capsaicin 300 nM
# [25] = capsazepine 156 nM, capsaicin 100 nM
# [26] = capsazepine 156 nM, capsaicin 300 nM
# [27] = capsazepine 625 nM, capsaicin 100 nM
# [28] = capsazepine 625 nM, capsaicin 300 nM
# [29] = capsazepine 2500 nM, capsaicin 100 nM
# [30] = capsazepine 2500 nM, capsaicin 300 nM
# [31] = capsazepine 10000 nM, capsaicin 100 nM
# [32] = capsazepine 10000 nM, capsaicin 300 nM
smiles,measurement,setting,value
"Oc1cc2c(cc1O)CN(C(=S)NCCc1ccc(Cl)cc1)CCC2 [Capsazepine, capsazepine]",Maximum RFU (mean ± SD),"[1]; capsazepine 0.1526 nM, phenoxyethanol 2 mM",319.33 ± 77.43 RFU
same,Maximum RFU (mean ± SD),"[1]; capsazepine 0.1526 nM, phenoxyethanol 3 mM",508.45 ± 81.79 RFU
same,Maximum RFU (mean ± SD),[1]; [5],210.03 ± 46.34 RFU
same,inhibition at 0.0006104 µM,[1]; [5],26.8%
same,Maximum RFU (mean ± SD),[1]; [6],351.36 ± 32.21 RFU
same,inhibition at 0.0006104 µM,[1]; [6],20.5%
same,Maximum RFU (mean ± SD),[1]; [7],236.10 ± 8.91 RFU
same,inhibition at 0.002 µM,[1]; [7],17.7%
same,Maximum RFU (mean ± SD),"[1]; capsazepine 2 nM, phenoxyethanol 3 mM",486.75 ± 153.02 RFU
same,Maximum RFU (mean ± SD),[1]; [8],154.95 ± 19.56 RFU
same,inhibition at 0.01 µM,[1]; [8],46%
same,Maximum RFU (mean ± SD),[1]; [9],340.96 ± 12.96 RFU
same,inhibition at 0.01 µM,[1]; [9],22.8%
same,Maximum RFU (mean ± SD),[1]; [10],75.06 ± 6.64 RFU
same,inhibition at 0.039 µM,[1]; [10],73.8%
same,Maximum RFU (mean ± SD),[1]; [11],176.52 ± 75.37 RFU
same,inhibition at 0.039 µM,[1]; [11],60%
same,Maximum RFU (mean ± SD),[1]; [12],87.54 ± 8.38 RFU
same,inhibition at 0.156 µM,[1]; [12],69.5%
same,Maximum RFU (mean ± SD),[1]; [13],101.59 ± 2.44 RFU
same,inhibition at 0.156 µM,[1]; [13],77%
same,Maximum RFU (mean ± SD),[1]; [14],57.76 ± 2.15 RFU
same,inhibition at 0.625 µM,[1]; [14],79.9%
same,Maximum RFU (mean ± SD),[1]; [15],75.71 ± 3.39 RFU
same,inhibition at 0.625 µM,[1]; [15],82.9%
same,Maximum RFU (mean ± SD),[1]; [16],84.79 ± 2.68 RFU
same,inhibition at 2.5 µM,[1]; [16],70.5%
same,Maximum RFU (mean ± SD),[1]; [17],99.71 ± 6.08 RFU
same,inhibition at 2.5 µM,[1]; [17],77.4%
same,Maximum RFU (mean ± SD),[1]; [18],79.39 ± 2.79 RFU
same,inhibition at 10 µM,[1]; [18],72.3%
same,Maximum RFU (mean ± SD),[1]; [19],106.49 ± 4.15 RFU
same,inhibition at 10 µM,[1]; [19],75.9%
same,Maximum RFU (mean ± SD),"[2]; capsazepine 2 nM, capsaicin 100 nM",665.83 ± 90.25 RFU
same,Maximum RFU (mean ± SD),[2]; [20],850.93 ± 28.65 RFU
same,inhibition at 0.002 µM,[2]; [20],1.16%
same,Maximum RFU (mean ± SD),[2]; [21],461.29 ± 221.27 RFU
same,inhibition at 0.01 µM,[2]; [21],28.7%
same,Maximum RFU (mean ± SD),[2]; [22],771.64 ± 25.92 RFU
same,inhibition at 0.01 µM,[2]; [22],10.4%
same,Maximum RFU (mean ± SD),[2]; [23],187.95 ± 177.88 RFU
same,inhibition at 0.039 µM,[2]; [23],71%
same,Maximum RFU (mean ± SD),[2]; [24],557.38 ± 79.48 RFU
same,inhibition at 0.039 µM,[2]; [24],35.3%
same,Maximum RFU (mean ± SD),[2]; [25],29.36 ± 6.46 RFU
same,inhibition at 0.156 µM,[2]; [25],95.5%
same,Maximum RFU (mean ± SD),[2]; [26],51.20 ± 14.34 RFU
same,inhibition at 0.156 µM,[2]; [26],94%
same,Maximum RFU (mean ± SD),[2]; [27],24.39 ± 5.19 RFU
same,inhibition at 0.625 µM,[2]; [27],96.2%
same,Maximum RFU (mean ± SD),[2]; [28],28.36 ± 3.16 RFU
same,inhibition at 0.625 µM,[2]; [28],96.7%
same,Maximum RFU (mean ± SD),[2]; [29],27.61 ± 4.95 RFU
same,inhibition at 2.5 µM,[2]; [29],95.7%
same,Maximum RFU (mean ± SD),[2]; [30],31.08 ± 3.44 RFU
same,inhibition at 2.5 µM,[2]; [30],96.4%
same,Maximum RFU (mean ± SD),[2]; [31],45.31 ± 14.17 RFU
same,inhibition at 10 µM,[2]; [31],93%
same,Maximum RFU (mean ± SD),[2]; [32],58.73 ± 4.40 RFU
same,inhibition at 10 µM,[2]; [32],93.2%
same,Maximum RFU,[3]; benzyl alcohol 0 % w/v,13.30 RFU and 18.24 ± 1.3 RFU
same,Maximum RFU,[3]; benzyl alcohol 0.00000199 % w/v,11.32 RFU and 18.74 ± 2.18 RFU
same,Maximum RFU,[3]; benzyl alcohol 0.00000598 % w/v,9.46 RFU and 16.77 ± 1.48 RFU
same,Maximum RFU,[3]; benzyl alcohol 0.0000538 % w/v,10.90 RFU and 18.44 ± 0.07 RFU
same,Maximum RFU,[3]; benzyl alcohol 0.001452 % w/v,11.63 RFU and 15.7 ± 2.1 RFU
same,% Inhibition,[3]; benzyl alcohol 0.004357 % w/v,72.51%
same,Maximum RFU,[3]; benzyl alcohol 0.004357 % w/v,8.14 RFU and 15.33 ± 1 RFU
same,inhibition at 10 µM,[3]; benzyl alcohol 0.004357 % w/v,74.2%
same,% Inhibition,[3]; benzyl alcohol 0.013072 % w/v,82.58%
same,inhibition at 10 µM,[3]; benzyl alcohol 0.013072 % w/v,88.8%
same,% Inhibition,[3]; benzyl alcohol 0.04 % w/v,93.23%
same,Maximum RFU,[3]; benzyl alcohol 0.04 % w/v,18.82 RFU and 28.72 ± 1.5 RFU
same,inhibition at 10 µM,[3]; benzyl alcohol 0.04 % w/v,95.4%
same,Maximum RFU,[3]; benzyl alcohol 6.64E−07 % w/v,11.79 RFU and 18.24 ± 2.53 RFU
same,Maximum RFU,[4]; phenethyl alcohol 0 % w/v,13.44 RFU and 17.46 ± 0.4 RFU
same,Maximum RFU,[4]; phenethyl alcohol 0.000002 % w/v,12.76 RFU and 18.03 ± 3.35 RFU
same,Maximum RFU,[4]; phenethyl alcohol 0.000006 % w/v,13.70 RFU and 18 ± 0.75 RFU
same,Maximum RFU,[4]; phenethyl alcohol 0.000018 % w/v,13.60 RFU and 18.18 ± 0.59 RFU
same,Maximum RFU,[4]; phenethyl alcohol 0.00016 % w/v,11.64 RFU and 19.48 ± 0.51 RFU
same,Maximum RFU,[4]; phenethyl alcohol 0.00048 % w/v,11.71 RFU and 20.58 ± 0.6 RFU
same,Maximum RFU,[4]; phenethyl alcohol 0.0015 % w/v,11.68 RFU and 18.5 ± 0.5 RFU
same,inhibition at 10 µM,[4]; phenethyl alcohol 0.0015 % w/v,54.3%
same,(column without head; percent inhibition),[4]; phenethyl alcohol 0.0044 % w/v,56.15% and 80.22%
same,Maximum RFU,[4]; phenethyl alcohol 0.0044 % w/v,11.56 RFU and 15.66 ± 0.4 RFU
same,(column without head; percent inhibition),[4]; phenethyl alcohol 0.013 % w/v,93.84%
same,inhibition at 10 µM,[4]; phenethyl alcohol 0.013 % w/v,96.3%
same,(column without head; percent inhibition),[4]; phenethyl alcohol 0.04 % w/v,91.52%
same,Maximum RFU,[4]; phenethyl alcohol 0.04 % w/v,26.42 RFU and 39.89 ± 5.81 RFU
same,inhibition at 10 µM,[4]; phenethyl alcohol 0.04 % w/v,94%
same,(column without head; percent inhibition),[4]; phenethyl alcohol 0.12 % w/v,37.18%
same,Maximum RFU,[4]; phenethyl alcohol 0.12 % w/v,345.95 RFU and 364.66 ± 13.76 RFU
same,inhibition at 10 µM,[4]; phenethyl alcohol 0.12 % w/v,42.9%
